Laboratory results published in ChEMBL document CHEMBL3393050, “Fine tuning of 4,6-bisphenyl-2-(3-alkoxyanilino)pyrimidine focusing on the activity-sensitive aminoalkoxy moiety for a therapeutically useful inhibitor of receptor for advanced glycation end products (RAGE)” (Bioorg Med Chem, 2015).
Activity calls are given as the source filed them. No cut-off for these calls is given here.

How the values were obtained:
[1] = molecular target: Advanced glycosylation end product-specific receptor (Homo sapiens) (UniProt Q15109); experiment: Inhibition of biotinylated human RAGE assessed as bound amyloid beta level at 20 uM after 60 mins by ELISA relative to control; details: for residual binding, % of control: values are per cent of control
Advanced glycosylation end product-specific receptor (Homo sapiens), sequence (Q15109 whole entry): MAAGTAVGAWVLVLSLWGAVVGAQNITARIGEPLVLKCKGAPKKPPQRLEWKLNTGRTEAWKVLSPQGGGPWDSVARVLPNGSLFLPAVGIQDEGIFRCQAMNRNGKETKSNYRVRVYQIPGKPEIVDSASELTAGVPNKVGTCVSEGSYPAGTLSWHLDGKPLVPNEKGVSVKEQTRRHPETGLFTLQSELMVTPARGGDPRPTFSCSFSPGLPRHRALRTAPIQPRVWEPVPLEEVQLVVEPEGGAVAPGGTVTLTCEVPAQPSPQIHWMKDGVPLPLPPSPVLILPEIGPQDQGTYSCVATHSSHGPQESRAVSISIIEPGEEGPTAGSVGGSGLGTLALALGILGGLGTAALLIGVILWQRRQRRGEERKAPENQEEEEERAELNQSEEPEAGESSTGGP

[2] = Kinetic solubility in DMSO solution at pH 4 by nephelometry; assay type: physicochemical; details: read-out: Kinetic_solubility
[3] = Kinetic solubility in DMSO solution at pH 7.4 by nephelometry; assay type: physicochemical; details: read-out: Kinetic_solubility

O=C1CCCN1CCOc1cccc(Nc2nc(-c3ccc(Cl)cc3)cc(-c3ccc(Cl)cc3)n2)c1
inhibition [1]: inactive

CCN(CC)CCOc1cccc(Nc2nc(-c3ccc(Cl)cc3)cc(-c3ccc(Cl)cc3)n2)c1.Cl
solubility kinetic [2]: 372 µM

CN(C)C1CCN(CCOc2cccc(Nc3nc(-c4ccc(Cl)cc4)cc(-c4ccc(Cl)cc4)n3)c2)C1.Cl (stereo unspecified)
solubility kinetic [3]: 28.2 µM | solubility kinetic [2]: > 500 µM | residual binding, % of control [1]: 143%

CO/N=C/CCOc1cccc(Nc2nc(-c3ccc(Cl)cc3)cc(-c3ccc(Cl)cc3)n2)c1
inhibition [1]: inactive

Clc1ccc(-c2cc(-c3ccc(Cl)cc3)nc(Nc3cccc(OCCN4CCSCC4)c3)n2)cc1
inhibition [1]: inactive

CON(C)C(=O)CCOc1cccc(Nc2nc(-c3ccc(Cl)cc3)cc(-c3ccc(Cl)cc3)n2)c1
inhibition [1]: inactive

CN1CCN(c2cccc(Nc3nc(-c4ccc(Cl)cc4)cc(-c4ccc(Cl)cc4)n3)c2)CC1
residual binding, % of control [1]: 74%

Clc1ccc(-c2cc(-c3ccc(Cl)cc3)nc(Nc3cccc(OCCN4CCOCC4)c3)n2)cc1
inhibition [1]: inactive

CC(C)(C)OC(=O)NC1CCN(CCOc2cccc(Nc3nc(-c4ccc(Cl)cc4)cc(-c4ccc(Cl)cc4)n3)c2)C1 (stereo unspecified)
residual binding, % of control [1]: 46%

OC1CCCN(CCOc2cccc(Nc3nc(-c4ccc(Cl)cc4)cc(-c4ccc(Cl)cc4)n3)c2)C1 (stereo unspecified)
residual binding, % of control [1]: 52%

CCOCCOc1cccc(Nc2nc(-c3ccc(Cl)cc3)cc(-c3ccc(Cl)cc3)n2)c1
inhibition [1]: inactive

CCN(CC)CCCOc1cccc(Nc2nc(-c3ccc(Cl)cc3)cc(-c3ccc(Cl)cc3)n2)c1
residual binding, % of control [1]: 84%

O=C(O)CCOc1cccc(Nc2nc(-c3ccc(Cl)cc3)cc(-c3ccc(Cl)cc3)n2)c1
inhibition [1]: inactive

O=C1CCN(CCOc2cccc(Nc3nc(-c4ccc(Cl)cc4)cc(-c4ccc(Cl)cc4)n3)c2)CC1
inhibition [1]: inactive

NC1CCN(CCOc2cccc(Nc3nc(-c4ccc(Cl)cc4)cc(-c4ccc(Cl)cc4)n3)c2)C1 (stereo unspecified)
residual binding, % of control [1]: 106%

CONC(=O)CCOc1cccc(Nc2nc(-c3ccc(Cl)cc3)cc(-c3ccc(Cl)cc3)n2)c1
inhibition [1]: inactive

CCN(CCO)CCOc1cccc(Nc2nc(-c3ccc(Cl)cc3)cc(-c3ccc(Cl)cc3)n2)c1
residual binding, % of control [1]: 101%

COC(=O)CCOc1cccc(Nc2nc(-c3ccc(Cl)cc3)cc(-c3ccc(Cl)cc3)n2)c1
inhibition [1]: inactive

COC1CCCN(CCOc2cccc(Nc3nc(-c4ccc(Cl)cc4)cc(-c4ccc(Cl)cc4)n3)c2)C1 (stereo unspecified)
residual binding, % of control [1]: 48%

CN1CCN(CCOc2cccc(Nc3nc(-c4ccc(Cl)cc4)cc(-c4ccc(Cl)cc4)n3)c2)CC1
residual binding, % of control [1]: 71%

Clc1ccc(-c2cc(-c3ccc(Cl)cc3)nc(Nc3cccc(OCCN4CCCCC4)c3)n2)cc1
residual binding, % of control [1]: 112%

CCN(CCOC)CCOc1cccc(Nc2nc(-c3ccc(Cl)cc3)cc(-c3ccc(Cl)cc3)n2)c1
residual binding, % of control [1]: 88%

Clc1ccc(-c2cc(-c3ccc(Cl)cc3)nc(Nc3cccc(OCCN4CCCC4)c3)n2)cc1
residual binding, % of control [1]: 114%

CN(C)CCOc1cccc(Nc2nc(-c3ccc(Cl)cc3)cc(-c3ccc(Cl)cc3)n2)c1
residual binding, % of control [1]: 24%
